Data reported in publication PMC8490515, “Neuromedin B receptor stimulation of Cav3.2 T-type Ca^2+ channels in primary sensory neurons mediates peripheral pain hypersensitivity” (Theranostics, 2021).

How the values were obtained:
[1] = system: phosphorylated AMPK (p-AMPK); test: Western blot of phosphorylated AMPK in TG cells; format: cell-based, mouse; details: Nmb exposure (100 nM) in TG cells
Cav3.2 = test: Western blot of Cav3.2 protein in TG cells / TGs; format: cell-based, mouse; details: 100 nM Nmb
[2] = system: mechanical hypersensitivity in mice; test: Orofacial stimulation (operant) test, total contact time; format: in vivo, mouse; details: 1 h after intra-TG 1 nmol Nmb
Procedure: (§1) Mice were housed on a 12 h light/dark cycle, maintained in a humidity- and temperature-controlled room with water available ad libitum and were acclimated to the experimenter for 2 d before the first behavioural observations. Experimenters were blinded to the treatment or genotypes of the mice. As described previously, [31], an Orofacial Stimulation Test (Ugo Basile, Italy) was used for the measurement of hypersensitivity to the mechanical stimulation of the trigeminal area. Briefly, the mice initially underwent one week of adaptation trainings after a 12 h fasting food period. Each mouse was then placed in a cage in which there was an Orofacial Stimulation Test system. […] The contact number and total duration of time the mouse spent acquiring the reward were analyzed with the ORO software.
(§2) For experiments that several time points are needed to be checked in 24 h, von Frey test was used, as orofacial stimulation test can be checked only once a day, [32]. […] Mechanical hypersensitivity was assessed as described in previous studies, [33]. In brief, the threshold was assessed with a set of von Frey hairs (0.02-2.56 g, Stoelting) applied to the whisker pad in an ascending series of trials, with three separate von Frey stimulations applied per series. The threshold was determined when mice moved their heads away briskly and strongly from at least one of the three stimuli. […]

nociceptive reflex = details: intrathecal injection; ref [4], [5]; cited from earlier work
Description: Neuromedin B (Nmb) is a highly conserved and non-glycosylated polypeptide in mammals initially purified from porcine spinal cord that serves as a neuromodulator by paracrine or autocrine mechanisms. Nmb receptor (NmbR), which is located predominantly (but not exclusively) in peripheral tissues and organs and the central nervous system in mammals, has been identified as an endogenous receptor for Nmb. Acting through this receptor, Nmb mediates several behavioural effects and performs various biological functions, including regulating food intake, smooth muscle contraction, body temperat ...

[3] = system: nociception and neurogenic inflammation; details: application of Nmb; ref [4], [5]; cited from earlier work
Description: It has been well established that T-type channels promote Ca^2+ entry that disrupts the resting membrane potential and can modulate neuronal activity in the peripheral and central nervous systems, thus improving transmission efficiency. In the peripheral sensory neurons this low activation threshold property of T-type channels typically results in the amplification of sensory signals, increased afferent sensory transmission and, in particular, increased pain perception, [74].

[4] = system: Nmb-induced mechanical hypersensitivity in mice; test: Nmb-induced mechanical hypersensitivity, effect of pretreatment (Figure 7C); format: in vivo, mouse; details: intra-TG KT-5720 2 nmol prior to 1 nmol Nmb; 1 h; n = 8 - 10
Procedure: as §1, §2

Molecule | level of phosphorylated AMPK [1] | Cav3.2 protein expression in TG cells (Cav3.2) | total contact time [2] | nociceptive reflex responses (nociceptive reflex) | pro-nociceptive effects of Nmb [3] | effect on Nmb-induced mechanical hypersensitivity [4]
Neuromedin B [Nmb] | markedly increased | did not affect the Cav3.2 protein expression | significantly reduced | elicits nociceptive reflex responses | can induce pro-nociceptive effects | –
CCCCCCOC(=O)[C@]1(O)C[C@@H]2O[C@@]1(C)n1c3ccccc3c3c4c(c5c6ccccc6n2c5c31)C(=O)NC4 [KT-5720] | – | – | – | – | – | abolished
